From ChEMBL document CHEMBL5143545, “Indolylarylsulfones bearing phenylboronic acid and phenylboronate ester functionalities as potent HIV‑1 non-nucleoside reverse transcriptase inhibitors” (Bioorg Med Chem, 2022)
pEC50, pIC50: −log10 of the molar value. ≈ marks a conversion by molar mass, not a printed value.

Key:
[1] = tested on: Human immunodeficiency virus 1; assay type: functional, organism-based; settings: Human immunodeficiency virus 1, MT4
[2] = in vitro; settings: human, MT4 cells, mock-infected (CC50) and HIV1 3B infected (EC50)
Description: Selectivity index, ratio of CC50 for toxicity in mock-infected human MT4 cells assessed as reduction in cell viability by MTT assay to EC50 for antiviral activity against HIV1 3B infected in human MT4 cells assessed as protection against viral-induced cytopathogenecity by MTT assay

[3] = tested on: Human immunodeficiency virus 1; assay: microbe, parasite or virus in culture; settings: Human immunodeficiency virus 1, 3B, MT4
Description: Antiviral activity against HIV1 3B infected in human MT4 cells assessed as protection against viral-induced cytopathogenecity by MTT assay

[4] = Toxicity in mock-infected human MT4 cells assessed as reduction in cell viability by MTT assay; assay type: cell-based
[5] = tested on: Human immunodeficiency virus 1; assay: Antiviral activity against HIV1 with RT E138K mutant infected in human MT4 cells assessed as protection against viral-induced cytopathogenecity by MTT assay; assay type: functional, organism-based; settings: Human immunodeficiency virus 1, MT4
[6] = tested on: Human immunodeficiency virus 1; assay: Antiviral activity against HIV1 with RT RES056 mutant infected in human MT4 cells assessed as protection against viral-induced cytopathogenecity by MTT assay; assay type: functional, organism-based; settings: Human immunodeficiency virus 1, MT4
[7] = tested on: Human immunodeficiency virus 1; assay type: functional, organism-based; settings: Human immunodeficiency virus 1, MT4; remark: listed apart in the source
[8] = tested on: Human immunodeficiency virus 1; assay: Antiviral activity against HIV1 with RT K103N mutant infected in human MT4 cells assessed as protection against viral-induced cytopathogenecity by MTT assay; assay type: functional, organism-based; settings: Human immunodeficiency virus 1, MT4
[9] = tested on: Human immunodeficiency virus 1; assay type: functional, organism-based; settings: Human immunodeficiency virus 1, MT4; remark: listed apart in the source
[10] = tested on: Human immunodeficiency virus 1; assay: Antiviral activity against HIV1 with RT L100I mutant infected in human MT4 cells assessed as protection against viral-induced cytopathogenecity by MTT assay; assay type: functional, organism-based; settings: Human immunodeficiency virus 1, MT4
[11] = Solubility in water at pH 2; assay type: physicochemical
[12] = Solubility in water at pH 7.4; assay type: physicochemical
[13] = Solubility in water at pH 7; assay type: physicochemical
[14] = molecular target: Human immunodeficiency virus type 1 reverse transcriptase (Human immunodeficiency virus 1, UniProt Q72547); assay: Inhibition of HIV1 reverse transcriptase assessed as inhibition of biotin-dUTP incorporation

| SMILES | pEC50 [1] | selectivity ratio [2] | pEC50 [3] | CC50 [4] [µM] | pEC50 [5] | pEC50 [6] | pEC50 [7] | pEC50 [8] | pEC50 [9] | pEC50 [10] | solubility [11] [mg/mL] | solubility [12] [mg/mL] | solubility [13] [mg/mL] | pIC50 [14] |
| --- | --- | --- | --- | --- | --- | --- | --- | --- | --- | --- | --- | --- | --- | --- |
| Cc1cc(C)cc(S(=O)(=O)c2c(C(=O)NC3CCN(Cc4cccc(B(O)O)c4)CC3)[nH]c3ccc(Cl)cc23)c1 | 5.92 | 151 | 7.37 | 6.43 | 6.14 | < 5.19 | < 5.19 | 6.29 | < 5.92 | 6.55 | – | – | – | – |
| Cc1cc(C)cc(S(=O)(=O)c2c(C(=O)NCCNC(=O)c3cccc(B(O)O)c3)[nH]c3ccc(Cl)cc23)c1 | 5.87 | 517 | 7.39 | 21.1 | 6.61 | < 4.68 | 5.09 | 6.24 | 6.01 | 6.59 | – | – | – | – |
| Cc1cc(C)cc(S(=O)(=O)c2c(C(=O)NCCCNC(=O)c3ccc(B(O)O)cc3)[nH]c3ccc(Cl)cc23)c1 | 6.72 | 2240 | 7.95 | 24.7 | 7.47 | 5.31 | 5.65 | 7.48 | 6.93 | 7.68 | – | – | – | – |
| Cc1cc(C)cc(S(=O)(=O)c2c(C(=O)NC3CCN(Cc4ccc(B(O)O)cc4)CC3)[nH]c3ccc(Cl)cc23)c1 | 5.97 | 615 | 7.50 | 19.3 | 6.19 | < 4.71 | < 4.71 | 6.51 | 5.88 | 6.96 | – | – | – | – |
| Cc1cn([C@H]2C[C@H](N=[N+]=[N-])[C@@H](CO)O2)c(=O)[nH]c1=O [ZIDOVUDINE] | 7.82 | > 352 | 7.67 | > 7.48 | 7.46 | – | 7.92 | 7.66 | 8.01 | 8.03 | – | – | – | – |
| Cc1cc(C)cc(S(=O)(=O)c2c(C(=O)Nc3ccc(B(O)O)cc3)[nH]c3ccc(Cl)cc23)c1 | 6.67 | 712 | 7.92 | 8.55 | 7.40 | < 3.07 | < 5.79 | 7.39 | 7.10 | 7.43 | – | – | – | – |
| Cc1cc(C)cc(S(=O)(=O)c2c(C(=O)NCCNC(=O)c3ccc(B(O)O)cc3)[nH]c3ccc(Cl)cc23)c1 | 6.04 | 1230 | 7.70 | 24.4 | 6.79 | < 4.61 | 5.17 | 6.59 | 6.15 | 6.64 | – | – | – | – |
| Cc1cc(C#N)cc(C)c1Oc1nc(Nc2ccc(C#N)cc2)nc(N)c1Br [ETRAVIRINE] | – | – | 8.54 | > 4.59 | 7.72 | 7.18 | – | – | 7.70 | 8.12 | < 0.003 | < 0.001 | < 0.002 | – |
| O=C1Nc2ccc(Cl)cc2[C@@](C#CC2CC2)(C(F)(F)F)O1 [EFAVIRENZ] | 8.20 | – | – | > 6.34 | 8.18 | 6.48 | 6.68 | – | – | – | – | – | – | – |
| Cc1cc(C)cc(S(=O)(=O)c2c(C(=O)Nc3cccc(B(O)O)c3)[nH]c3ccc(Cl)cc23)c1 | 6.07 | 282 | 7.72 | 5.31 | 7.17 | < 5.28 | < 5.28 | 7.00 | 6.70 | 7.06 | – | – | – | – |
| Cc1ccnc2c1NC(=O)c1cccnc1N2C1CC1 [NEVIRAPINE] | 4.96 | – | 6.80 | > 15 | – | < 2.82 | < 2.82 | – | < 2.82 | – | – | – | – | – |
| Cc1cc(C)cc(S(=O)(=O)c2c(C(=O)NCc3ccc(B(O)O)cc3)[nH]c3ccc(Cl)cc23)c1 | 6.92 | 3140 | 8.06 | 27.7 | 7.27 | 5.33 | 5.41 | 7.49 | 6.94 | 8.03 | – | – | – | – |
| Nc1ccn([C@@H]2CS[C@H](CO)O2)c(=O)n1 [LAMIVUDINE] | 5.47 | > 309 | 5.28 | > 87.2 | 5.08 | 5.30 | 5.34 | 5.55 | 5.66 | 5.94 | – | – | – | – |
| Cc1cc(C)cc(S(=O)(=O)c2c(C(=O)NCc3ccc(B4OC(C)(C)C(C)(C)O4)cc3)[nH]c3ccc(Cl)cc23)c1 | 7.16 | 3550 | 8.17 | 23.9 | 7.35 | 5.39 | 5.59 | 7.46 | 7.04 | 7.85 | 0.073 (≈ 126 µM) | 0.0377 (≈ 65.1 µM) | 0.0358 (≈ 61.8 µM) | 6.92 |
| Cc1cc(C)cc(S(=O)(=O)c2c(C(=O)NCc3cccc(B(O)O)c3)[nH]c3ccc(Cl)cc23)c1 | 7.22 | 3310 | 8.07 | 28 | 7.30 | 5.82 | 6.05 | 8.04 | 7.68 | 8.14 | 0.064 (≈ 129 µM) | 0.0945 (≈ 190 µM) | 0.07 (≈ 141 µM) | 6.91 |
| Cc1cc(C)cc(S(=O)(=O)c2c(C(N)=O)[nH]c3ccc(Cl)cc23)c1 | 7.52 | 2570 | 8.55 | 7.08 | 8.00 | < 5.15 | 5.93 | 7.70 | 7.10 | 8.00 | 0.0712 (≈ 196 µM) | 0.029 (≈ 79.9 µM) | 0.0583 (≈ 161 µM) | 8.32 |
| Cc1cc(C)cc(S(=O)(=O)c2c(C(=O)NCCCNC(=O)c3cccc(B(O)O)c3)[nH]c3ccc(Cl)cc23)c1 | 6.57 | 684 | 7.45 | 24.2 | 7.07 | 5.27 | 5.74 | 6.89 | 6.66 | 6.96 | – | – | – | – |
| Cc1cc(C)cc(S(=O)(=O)c2c(C(=O)Nc3ccc4c(c3)B(O)OC4)[nH]c3ccc(Cl)cc23)c1 | 6.33 | 457 | 7.74 | 8.42 | 7.19 | < 5.08 | < 5.71 | 6.96 | 6.72 | 7.02 | – | – | – | – |
